Data from patent US8906909B2 (Curis, Inc., priority 2009, dated 2014).

Legend:
[1] = test system: HCT-118 cells; experiment: Cell proliferation assay Method A (ATPlite), HCT-118; type: cell-based; settings: 72 hours, read-out: antiproliferative activity IC50, HCT-118
In short: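 Cells seeded at 5,000–10,000 per well with graded compound concentrations and cultured 72 h in 0.5% fetal bovine serum. Growth inhibition read as cellular ATP content by firefly luciferase luminescence (ATPlite).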

[2] = test system: SUP-B15 cells; experiment: Cell proliferation assay Method B, SUP-B15; type: cell-based; settings: Homo sapiens, ALL, 72 hours, read-out: antiproliferative activity IC50, SUP-B15
Experimental: (§1) Cancer cell lines were plated at 5,000 to 10,000 per well in 96-well flat bottomed plates with various concentration of compounds. The cells were incubated with compounds for 72 hours in the presence of 0.5% of fetal bovine serum. Growth inhibition was accessed by adenosine triphosphate (ATP) content assay using Promega CellTiter-Glo kit. Promega CellTiter-Glo kit is an ATP monitoring system based on firefly luciferase. Briefly, 16 μl of mammalian cell lysis and substrate solution was added to 84 μl of culture medium per well to lyse the cells and stabilize the ATP. The mixture was shaken and incubated for 30 minutes and subsequently the luminescence was measured.

[3] = test system: HDACs (HeLa cell nuclear extracts); experiment: HDAC enzymatic activity, Biomol Color de Lys system; type: biochemical
In short: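 HeLa nuclear extract as HDAC source with Color de Lys substrate in 50 mM Tris/Cl pH 8.0, 137 mM NaCl, 2.7 mM KCl, 1 mM MgCl2. Serially diluted compounds reacted 1 h at 25 °C, then developer added; fluorescence (Ex 350–380/Em 440–460) fitted sigmoidally for IC50.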

[4] = target: T1, PI3Kγ (p120γ) (Homo sapiens, UniProt P48736); experiment: PI3Kγ TR-FRET (HTRF) assay; type: biochemical; settings: 10 μM ATP
T1 construct: His tag (N); made in house; host or cells: Baculovirus-infected Sf9 insect cells
Text: The proteins are purified by one-step affinity chromatography using glutathione-agarose.

[5] = test system: OPM-2 cells; experiment: Cell proliferation assay Method B, OPM-2; type: cell-based; settings: Homo sapiens, Multiple Myeloma, 72 hours, read-out: antiproliferative activity IC50, OPM-2
Experimental: as §1

[6] = test system: glioblastoma xenografts; settings: oral dosage; Folkes et al. 2008; cited from earlier work
[7] = test system: LN-Cap cells; experiment: Cell proliferation assay Method B, LN-Cap; type: cell-based; settings: Homo sapiens, LNCaP, Prostate, 72 hours, read-out: antiproliferative activity IC50, LN-Cap
Experimental: as §1

[8] = test system: OVCAR-5 cells; experiment: Cell proliferation assay Method B, OVCAR-5; type: cell-based; settings: Homo sapiens, Ovarian, 72 hours, read-out: antiproliferative activity IC50, OVCAR-5
Experimental: as §1

[9] = test system: SWI-116 cells; experiment: Cell proliferation assay Method B, SWI-116; type: cell-based; settings: Colon, 72 hours, read-out: antiproliferative activity IC50, SWI-116
Experimental: as §1

[10] = test system: SW620 cells; experiment: Cell proliferation assay Method B, SW620; type: cell-based; settings: Homo sapiens, SW-620, Colon, 72 hours, read-out: antiproliferative activity IC50, SW620
Experimental: as §1

[11] = test system: SW1990 cells; experiment: Cell proliferation assay Method B, SW1990; type: cell-based; settings: Homo sapiens, Pancreas, 72 hours, read-out: antiproliferative activity IC50, SW1990
Experimental: as §1

[12] = test system: A549 cells; experiment: Cell proliferation assay Method B, A549; type: cell-based; settings: Homo sapiens, NSCLC, 72 hours, read-out: antiproliferative activity IC50, A549
Experimental: as §1

[13] = test system: T-84 cells; experiment: Cell proliferation assay Method B, T-84; type: cell-based; settings: Homo sapiens, T84, Colon, 72 hours, read-out: antiproliferative activity IC50, T-84
Experimental: as §1

T1 sequence (P48736 whole entry): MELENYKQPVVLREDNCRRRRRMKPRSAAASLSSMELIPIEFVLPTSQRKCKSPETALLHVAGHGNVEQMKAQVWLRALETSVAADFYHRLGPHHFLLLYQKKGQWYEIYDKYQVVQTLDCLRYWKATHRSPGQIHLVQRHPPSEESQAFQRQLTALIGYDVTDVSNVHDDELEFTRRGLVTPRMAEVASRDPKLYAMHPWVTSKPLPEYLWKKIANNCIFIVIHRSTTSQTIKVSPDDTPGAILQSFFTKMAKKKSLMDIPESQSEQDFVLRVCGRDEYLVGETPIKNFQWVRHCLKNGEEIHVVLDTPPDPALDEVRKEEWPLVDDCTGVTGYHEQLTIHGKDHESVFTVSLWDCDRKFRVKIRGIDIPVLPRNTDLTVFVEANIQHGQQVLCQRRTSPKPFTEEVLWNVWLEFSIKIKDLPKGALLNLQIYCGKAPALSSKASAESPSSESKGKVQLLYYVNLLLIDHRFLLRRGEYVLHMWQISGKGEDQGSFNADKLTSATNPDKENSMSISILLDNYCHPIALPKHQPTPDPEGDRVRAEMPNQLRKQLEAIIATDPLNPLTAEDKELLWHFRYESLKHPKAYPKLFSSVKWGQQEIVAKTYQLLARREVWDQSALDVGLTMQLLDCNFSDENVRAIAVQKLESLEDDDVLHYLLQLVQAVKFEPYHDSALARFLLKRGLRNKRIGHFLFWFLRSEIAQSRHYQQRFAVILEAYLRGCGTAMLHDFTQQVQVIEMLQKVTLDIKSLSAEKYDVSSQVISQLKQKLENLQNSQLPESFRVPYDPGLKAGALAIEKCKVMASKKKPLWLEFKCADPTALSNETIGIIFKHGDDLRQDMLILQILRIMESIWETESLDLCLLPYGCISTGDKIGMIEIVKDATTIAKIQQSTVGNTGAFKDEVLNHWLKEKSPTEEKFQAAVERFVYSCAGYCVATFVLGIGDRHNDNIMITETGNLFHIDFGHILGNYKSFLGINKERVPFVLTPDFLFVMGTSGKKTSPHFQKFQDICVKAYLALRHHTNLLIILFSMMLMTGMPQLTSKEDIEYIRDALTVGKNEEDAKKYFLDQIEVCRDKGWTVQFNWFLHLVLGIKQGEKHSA

IC50 [1] | IC50 [3] | IC50 [4] | SMILES | IC50 [2] | IC50 [5] | tumor suppression in glioblastoma xenografts [6] | IC50 [7] | IC50 [8] | IC50 [9] | IC50 [10] | IC50 [11] | IC50 [12] | IC50 [13]
< 100 nM | < 100 nM | 100 to 1000 nM | CN(Cc1cc2nc(-c3ccc(N)cc3)nc(N3CCOCC3)c2s1)c1ncc(C(=O)NO)cn1 [Compound 150, 2-(((2-(4-aminophenyl)-4-morpholinothieno[3,2-d]pyrimidin-6-yl)methyl)(methyl)amino)-N-hydroxypyrimidine-5-carboxamide] | < 10 nM |  |  |  |  |  |  |  |  | 
 |  |  | CS(=O)(=O)N1CCN(Cc2cc3nc(-c4cccc5[nH]ncc45)nc(N4CCOCC4)c3s2)CC1 [GDC-0941, reference compound] |  | 100 to 1000 nM | tumor suppression | 100 to 1000 nM | 100 to 1000 nM | > 10000 nM | > 10000 nM | > 10000 nM | 1000 to 10000 nM | 1000 to 10000 nM
